# Assay results taken from US9931347B2, “Pharmaceutical compound” (IOmet Pharma Ltd., priority 2013, dated 2018).
# Biological target: T1, TDO (A172 human glioblastoma cells) (Homo sapiens, UniProt P48775)
# T1 construct: This assay utilised cancer cells which expressed either TDO or IDO; endogenous in cells; host or cells: A172 human glioblastoma cells
# Test: A172 Kynurenine cell based assay
# Conditions: 500 μM L-tryptophan, 48 hours, kynurenine by Erhlich's reagent
# Summary of the method: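 A172 glioblastoma cells (30,000/well) cultured at 37° C. in phenol red-free RPMI with 10% FCS, 2 mM L-glutamine and 500 μM L-tryptophan, with or without test compound. After 48 hours, kynurenine in the supernatant was read with Erhlich's reagent (5 min) as absorbance at 490 nm.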
# T1 sequence (P48775 whole entry): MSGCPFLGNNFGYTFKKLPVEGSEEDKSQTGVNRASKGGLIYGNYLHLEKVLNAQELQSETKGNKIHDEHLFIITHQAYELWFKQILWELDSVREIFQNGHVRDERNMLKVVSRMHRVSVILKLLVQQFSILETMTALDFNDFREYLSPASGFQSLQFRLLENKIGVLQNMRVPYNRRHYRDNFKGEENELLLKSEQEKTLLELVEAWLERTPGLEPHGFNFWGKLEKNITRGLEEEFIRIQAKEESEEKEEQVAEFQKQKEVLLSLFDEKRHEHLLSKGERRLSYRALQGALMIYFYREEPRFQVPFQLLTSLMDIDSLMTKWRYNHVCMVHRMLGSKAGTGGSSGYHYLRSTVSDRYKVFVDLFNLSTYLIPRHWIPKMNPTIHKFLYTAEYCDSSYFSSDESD
row,Structure (SMILES),A172 Kynurenine cell based assay pIC50
1,CS(=O)(=O)N1CCC(c2c[nH]c3cc(F)c(F)cc23)CC1 [Compound 236],++ (++ = pIC50 5.00-5.99)
2,CN(C)S(=O)(=O)N1CC=C(c2c[nH]c3cc(F)ccc23)CC1 [Compound 251],+++ (+++ = pIC50 ≥6.00)
3,CNS(=O)(=O)N1CC=C(c2c[nH]c3cc(F)ccc23)CC1 [Compound 256],++ (++ = pIC50 5.00-5.99)
4,CNS(=O)(=O)N1CCC(c2c[nH]c3cc(F)ccc23)CC1 [Compound 257],++ (++ = pIC50 5.00-5.99)
5,CCC(=O)N1CCC(c2c[nH]c3cc(F)ccc23)CC1 [Compound 263],++ (++ = pIC50 5.00-5.99)
6,O=C(C1CC1)N1CCC(c2c[nH]c3cc(F)ccc23)CC1 [Compound 265],++ (++ = pIC50 5.00-5.99)
7,O=C(CO)N1CCC(c2c[nH]c3cc(F)ccc23)CC1 [Compound 269],++ (++ = pIC50 5.00-5.99)
8,COCCS(=O)(=O)N1CCC(c2c[nH]c3cc(F)ccc23)CC1 [Compound 285],++ (++ = pIC50 5.00-5.99)
9,Cn1cc(S(=O)(=O)N2CCC(c3c[nH]c4cc(F)ccc34)CC2)cn1 [Compound 286],++ (++ = pIC50 5.00-5.99)
10,O=S(=O)(C1CC1)N1CCC(c2c[nH]c3cc(F)ccc23)CC1 [Compound 288],++ (++ = pIC50 5.00-5.99)
11,CNS(=O)(=O)N1CCN(c2c[nH]c3ccccc23)CC1 [Compound 295],++ (++ = pIC50 5.00-5.99)
12,O=S1(=O)CCC2CN(c3c[nH]c4ccccc34)CCN21 (stereo not drawn) [Compound 304],++ (++ = pIC50 5.00-5.99)
13,NS(=O)(=O)N1CCN(c2c[nH]c3ccccc23)CC1 [Compound 311],++ (++ = pIC50 5.00-5.99)
14,CNCC1CN(c2c[nH]c3ccccc23)CCN1S(C)(=O)=O (stereo not drawn) [Compound 319],++ (++ = pIC50 5.00-5.99)

# Biological target: T2, IDO (SKOV3 human ovarian adenocarcinoma cells, IFN-γ induced) (Homo sapiens, UniProt P14902)
# T2 construct: IDO expression was induced in the SKOV3 cells by the addition of 500 ng/ml IFN-γ; endogenous in cells; host or cells: SKOV3 human ovarian adenocarcinoma cells, induced with IFN-γ
# T2 sequence (P14902 whole entry): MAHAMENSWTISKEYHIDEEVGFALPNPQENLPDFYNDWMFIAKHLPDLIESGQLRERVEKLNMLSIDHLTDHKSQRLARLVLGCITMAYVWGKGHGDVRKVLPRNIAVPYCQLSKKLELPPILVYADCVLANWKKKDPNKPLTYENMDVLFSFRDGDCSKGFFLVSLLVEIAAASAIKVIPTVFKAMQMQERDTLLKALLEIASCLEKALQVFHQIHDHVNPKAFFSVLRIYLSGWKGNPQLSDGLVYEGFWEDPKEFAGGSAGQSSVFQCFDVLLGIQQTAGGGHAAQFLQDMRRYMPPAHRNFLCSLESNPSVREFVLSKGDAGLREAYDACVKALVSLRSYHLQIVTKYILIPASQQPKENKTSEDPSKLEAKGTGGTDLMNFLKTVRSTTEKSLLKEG
# Test: SKOV3 Kynurenine cell based assay
# Conditions: IDO induced by 500 ng/ml IFN-γ, 500 μM L-tryptophan, 48 hours
# Summary of the method: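 IFN-γ (500 ng/ml) induced IDO in SKOV3 cells, seeded at 40,000/well in phenol red-free RPMI with 10% FCS, 2 mM L-glutamine and 500 μM L-tryptophan. Cells were incubated with or without compound at 37° C for 48 h. Supernatant kynurenine was detected with Ehrlich's reagent.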
row,Structure (SMILES),SKOV3 Kynurenine cell based assay pIC50
1,CS(=O)(=O)N1CCC(c2c[nH]c3cc(F)c(F)cc23)CC1 [Compound 236],+ (+ = pIC50 4.00-4.99)
2,CN(C)S(=O)(=O)N1CC=C(c2c[nH]c3cc(F)ccc23)CC1 [Compound 251],+ (+ = pIC50 4.00-4.99)
3,CNS(=O)(=O)N1CC=C(c2c[nH]c3cc(F)ccc23)CC1 [Compound 256],+ (+ = pIC50 4.00-4.99)
4,CNS(=O)(=O)N1CCC(c2c[nH]c3cc(F)ccc23)CC1 [Compound 257],+ (+ = pIC50 4.00-4.99)
5,CCC(=O)N1CCC(c2c[nH]c3cc(F)ccc23)CC1 [Compound 263],++ (++ = pIC50 5.00-5.99)
6,O=C(C1CC1)N1CCC(c2c[nH]c3cc(F)ccc23)CC1 [Compound 265],+ (+ = pIC50 4.00-4.99)
7,O=C(CO)N1CCC(c2c[nH]c3cc(F)ccc23)CC1 [Compound 269],+ (+ = pIC50 4.00-4.99)
8,COCCS(=O)(=O)N1CCC(c2c[nH]c3cc(F)ccc23)CC1 [Compound 285],+ (+ = pIC50 4.00-4.99)
9,O=S(=O)(C1CC1)N1CCC(c2c[nH]c3cc(F)ccc23)CC1 [Compound 288],+ (+ = pIC50 4.00-4.99)
10,CC(=O)N1CCCN(c2c[nH]c3ccccc23)CC1 [Compound 308],+ (+ = pIC50 4.00-4.99)

# Biological target: Recombinant human TDO (Homo sapiens, UniProt P48775)
# Sequence (P48775 whole entry): as the sequence (P48775 whole entry) above
# Test: hTDO biochemical coupled assay
# Conditions: 330 μM L-tryptophan, coupled with kynurenine formamidase
# Protocol: Exemplary compounds of the invention were prepared, and tested to determine their effect as TDO and/or IDO inhibitors. Two different assays were employed: 1. a cell-based assay for detecting the effect of test compounds on kynurenine production in two different cancer cell types. This assay utilised cancer cells which expressed either TDO or IDO and as such was used as a means of testing compound activity at these two enzymes in a cell-based context. 2. a TDO and IDO biochemical coupled assay which utilised recombinantly produced and purified TDO and IDO enzymes in combination with the enzyme formamidase. This coupled enzyme system allowed conversion of N-formylkynurenine produced by TDO or IDO activity to kynurenine which was then quantified by fluorescence following addition of Erhlich's Reagent The protocols for these are set out below.
# Recombinant human IDO or TDO was incubated in 50 mM KPO4 (pH 7.0), 0.5 mM EGTA, 0.5 mM EDTA, 0.05% Triton™ X100, 20 mM ascorbate, 10 μM methylene blue, 500 U/ml catalase, 50 μg/ml KynB (kynurenine formamidase). TDO assays were carried out in the presence of 330 μM L-tryptophan, while IDO assays had the addition of 45 μM L-tryptophan. After incubation for 17 minutes at room temperature the reactions were stopped by the addition of Erhlich's reagent and incubated at room temperature for 5 minutes before the fluorescence was read (Ex475, Em530).
row,Structure (SMILES),hTDO biochemical assay pIC50
1,CS(=O)(=O)N1CCC(c2c[nH]c3cc(F)c(F)cc23)CC1 [Compound 236],+ (+ = pIC50 4.00-4.99)
2,CN(C)S(=O)(=O)N1CC=C(c2c[nH]c3cc(F)ccc23)CC1 [Compound 251],+ (+ = pIC50 4.00-4.99)
3,CNS(=O)(=O)N1CC=C(c2c[nH]c3cc(F)ccc23)CC1 [Compound 256],+ (+ = pIC50 4.00-4.99)
4,CNS(=O)(=O)N1CCC(c2c[nH]c3cc(F)ccc23)CC1 [Compound 257],+ (+ = pIC50 4.00-4.99)
5,CCC(=O)N1CCC(c2c[nH]c3cc(F)ccc23)CC1 [Compound 263],+ (+ = pIC50 4.00-4.99)
6,O=C(C1CC1)N1CCC(c2c[nH]c3cc(F)ccc23)CC1 [Compound 265],+ (+ = pIC50 4.00-4.99)
7,O=C(CO)N1CCC(c2c[nH]c3cc(F)ccc23)CC1 [Compound 269],+ (+ = pIC50 4.00-4.99)
8,COCCS(=O)(=O)N1CCC(c2c[nH]c3cc(F)ccc23)CC1 [Compound 285],+ (+ = pIC50 4.00-4.99)
9,Cn1cc(S(=O)(=O)N2CCC(c3c[nH]c4cc(F)ccc34)CC2)cn1 [Compound 286],+ (+ = pIC50 4.00-4.99)
10,O=S(=O)(C1CC1)N1CCC(c2c[nH]c3cc(F)ccc23)CC1 [Compound 288],+ (+ = pIC50 4.00-4.99)
11,CNS(=O)(=O)N1CCN(c2c[nH]c3ccccc23)CC1 [Compound 295],+ (+ = pIC50 4.00-4.99)
12,O=S1(=O)CCC2CN(c3c[nH]c4ccccc34)CCN21 (stereo not drawn) [Compound 304],+ (+ = pIC50 4.00-4.99)
13,CC(=O)N1CCCN(c2c[nH]c3ccccc23)CC1 [Compound 308],+ (+ = pIC50 4.00-4.99)
14,NS(=O)(=O)N1CCN(c2c[nH]c3ccccc23)CC1 [Compound 311],+ (+ = pIC50 4.00-4.99)
15,CNCC1CN(c2c[nH]c3ccccc23)CCN1S(C)(=O)=O (stereo not drawn) [Compound 319],+ (+ = pIC50 4.00-4.99)
